Experimental data as given in patent publication US20220227735A1, “THERAPEUTIC METHODS AND COMPOUNDS” (RUTGERS, THE STATE UNIVERSITY OF NEW JERSEY, priority 2019, published 2022).
Like-named read-outs stand apart in the source and are kept apart here.

What was measured:
[1] = biological target: T1, Plasmodium falciparum PKG (PfPKG) (Plasmodium falciparum, UniProt Q8I719); test: PfPKG IMAP fluorescence polarization kinase assay; assay type: biochemical
T1 construct: Full length PfPKG was cloned into the pTrcHisC vector for expression in BL21 (DE3) Star cells; His tag (pTrcHisC vector) (N); made in house; host or cells: E. coli BL21 (DE3) Star
T1 sequence (Q8I719 whole entry): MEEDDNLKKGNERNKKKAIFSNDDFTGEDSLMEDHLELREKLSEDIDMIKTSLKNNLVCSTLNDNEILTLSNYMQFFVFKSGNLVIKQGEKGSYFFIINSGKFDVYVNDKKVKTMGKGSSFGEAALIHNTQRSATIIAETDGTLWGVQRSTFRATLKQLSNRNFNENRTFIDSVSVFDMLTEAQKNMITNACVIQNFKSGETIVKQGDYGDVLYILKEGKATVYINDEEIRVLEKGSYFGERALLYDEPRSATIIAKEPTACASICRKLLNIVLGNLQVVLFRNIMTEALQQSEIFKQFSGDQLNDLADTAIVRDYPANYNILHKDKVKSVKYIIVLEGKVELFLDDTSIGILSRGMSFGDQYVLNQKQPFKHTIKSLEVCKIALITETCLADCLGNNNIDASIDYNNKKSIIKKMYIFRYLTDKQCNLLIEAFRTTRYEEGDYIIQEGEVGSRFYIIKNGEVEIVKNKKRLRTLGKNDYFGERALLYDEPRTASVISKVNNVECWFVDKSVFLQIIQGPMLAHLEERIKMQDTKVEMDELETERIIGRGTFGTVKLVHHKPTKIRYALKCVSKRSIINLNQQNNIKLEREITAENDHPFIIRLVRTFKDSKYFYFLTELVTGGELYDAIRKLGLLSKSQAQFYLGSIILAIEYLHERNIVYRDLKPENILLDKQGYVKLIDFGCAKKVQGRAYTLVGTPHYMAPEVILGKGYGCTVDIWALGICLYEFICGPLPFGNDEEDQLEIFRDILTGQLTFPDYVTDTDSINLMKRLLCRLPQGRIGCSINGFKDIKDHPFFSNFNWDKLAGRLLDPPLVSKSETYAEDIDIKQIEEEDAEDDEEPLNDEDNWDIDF
Description: Full length PfPKG was cloned into the pTrcHisC vector for expression in BL21 (DE3) Star cells. An LB culture containing 50 ug/ml carbenicillin (250 mL) was grown overnight at 37° C. The following day the culture was cooled on ice for about 10-15 minutes and divided equally into two new 125 mL cultures. 125 ml of fresh LB broth containing carbenicillin was added to each flask bringing the volume of each flask to 250 ml. Cultures were shaken at 18° C. before induction with IPTG (1.0 mM) for 18-24 h. The bacterial pellet was frozen at −80° C. until protein purification. Cells were lysed with Bacterial Protein Extraction Reagent (Thermo Scientific) on ice for 10-15 min. Supernatant was obtained after centrifugation of lysate at 21,000×g for 15 min at 4° C. Supernatant was incubated for 30 minutes at 4° C. with rotation with HisPur Cobalt Resin (Thermo Scientific), pre-washed with Wash Buffer (50 mM Hepes pH 7.8, 120 mM KCl, 20 mM NaCl, 10 mM Imidazole). Resin was added to a gravity column that was allowed to empty through gravity flow. The resin was washed with Wash buffer until no more protein is eluted off the column as determined by Bradford assay. A second wash was performed with Wash buffer containing 300 mM NaCl as in the previous wash step. Bound protein was eluted in 50 mM Hepes pH 7.8, 120 mM KCl, 20 mM NaCl, 250 mM Imidazole. Protein was dialyzed overnight in 50 mM Hepes pH 7.8, 120 mM KCl, 20 mM NaCl and 10% glycerol, with two buffer exchanges. Dialyzed protein was concentrated in a Corning Spin-X concentrator and assayed for activity using the IMAP FP Progressive Screening Expression kit (Molecular Devices, catalog #R8127) following the manufacturer's protocol.
(§1) Plasmodium falciparum PKG (PfPKG) and human PKG (hPKG) kinase activity was assayed using a commercial immobilized metal ion affinity-based fluorescence polarization (IMAP) assay according to the manufactures protocol (Molecular Devices). Briefly, kinase assays (20 μl in black half volume 96 well microtiter plates) contained; 10 mM Tris-HCl, pH 7.2, 10 mM MgCl2, 0.05% NaN3, 0.01% Tween® 20, 10 uM ATP, 1 uM cGMP and 21 ng of recombinant enzyme per well. Compounds were preincubated with enzyme at 25° C. for 15 minutes and reactions were initiated with addition of 120 nM fluorescent peptide substrates, FAM-PKAtide for PfPKG and FAM-IP3R for hPKG (Molecular Devices). Fluorescent polarization was measured using a Synergy 2 Microplate reader (BioTek, Winooski, Vt.). Fluorescent polarization was read in parallel and perpendicular with an excitation wavelength of 485 nm and an emission wavelength of 528 nm. IC50 data were analyzed using a four parameter logistic curve fit using Microsoft Excel Solver.

human PKG (hPKG) = test: Human PKG IMAP fluorescence polarization kinase assay; assay type: biochemical; conditions: compound at 10 μm; recombinant hPKG, 10 uM ATP, 1 uM cGMP, FAM-IP3R substrate
Description: Human PKG, cloned into a pENTR221 vector, was obtained from DNASU.org. (HsCD00351766). It was cloned into a mammalian expression plasmid, Gateway pDEST27 (Invitrogen) for expression as a GST fusion protein, using LR Clonase II Plus enzyme (Invitrogen). The hPKG-pDEST27 plasmid was amplified in DH5a Max Efficiency Competent Cells and purified with a PureYield Plasmid Midiprep System (Promega) following the manufactures protocol. Expi293 cells were transfected with hPKG-pDEST27 using the Expifectamine 293 Transfection Kit (Gibco). After 18 hours, enhancing reagent (Gibco) was added. Cells were then collected 48 hours post-enhancing, centrifuged at 2000×g for 10 min, washed in ice cold PBS and frozen as a pellet at −80° C. until protein purification. The cell pellet was lysed with Mammalian Protein Extraction Reagent (Thermo Fisher) for 10-15 minutes. The lysate was centrifuged at 21,000×g for 15 minutes at 4° C. The supernatant was incubated for 1 h at 4° C. with glutathione resin that was pre-washed 10 times with ice cold Wash Buffer (50 mM Hepes pH 7.8, 120 mM KCl, 20 mM NaCl, 10% glycerol). The resin was loaded onto a column and washed with resin wash buffer by gravity flow until no more protein was detectable in the washes by Bradford assay. Protein was eluted with 10 mg/ml glutathione in Wash buffer. The protein was concentrated using a 30K MWCO Corning Spin X concentrator and assayed for activity as described above.
as §1

[2] = recombinant PfPKG, 10 uM ATP, 1 uM cGMP, FAM-PKAtide substrate, read-out: PfPKG (μm)

Structure (SMILES)	IC50 [1, 2]	Human PKG (10 μm) (human PKG (hPKG))	IC50 [1]	IC50 ([1]; read-out: PfPKG (μm), recombinant PfPKG, 10 uM ATP, 1 uM cGMP, FAM-PKAtide substrate)
C[C@H]1C[C@@H](c2cc(-c3ccncc3)c(-c3ccc(F)cc3)[nH]2)CCN1C (single isomer, unassigned) [Example 29, 4-(5-(cis-1,2-dimethylpiperidin-4-yl)-2-(4-fluorophenyl)-1H-pyrrol-3-yl)pyridine]	< 1000 nM	26		
C[C@H]1C[C@H](c2cc(-c3ccncc3)c(-c3ccc(F)cc3)[nH]2)CCN1C (single isomer, unassigned) [Example 30, 4-(5-(trans-1,2-dimethylpiperidin-4-yl)-2-(4-fluorophenyl)-1H-pyrrol-3-yl)pyridine]	< 1000 nM			
C[C@@H]1CN(C)CC[C@@H]1c1cc(-c2ccncc2)c(-c2ccc(F)cc2)[nH]1 (single isomer, unassigned) [Example 31, 4-(5-(cis-1,3-dimethylpiperidin-4-yl)-2-(4-fluorophenyl)-1H-pyrrol-3-yl)pyridine]		82	< 1000 nM	
C[C@@H]1CN(C)CC[C@H]1c1cc(-c2ccncc2)c(-c2ccc(F)cc2)[nH]1 (single isomer, unassigned) [Example 32, 4-(5-(trans-1,3-dimethylpiperidin-4-yl)-2-(4-fluorophenyl)-1H-pyrrol-3-yl)pyridine]		66		< 1000 nM
CN1CCC(c2cc(-c3ccncc3Br)c(-c3ccc(F)cc3)[nH]2)CC1 [Example 1, 3-bromo-4-(2-(4-fluorophenyl)-5-(1-methylpiperidin-4-yl)-1H-pyrrol-3-yl)pyridine]	< 1000 nM	39		
CN1CCC(c2cc(-c3ccnc(Br)c3)c(-c3ccc(F)cc3)[nH]2)CC1 [Example 2, 2-bromo-4-(2-(4-fluorophenyl)-5-(1-methylpiperidin-4-yl)-1H-pyrrol-3-yl)pyridine]	< 1000 nM	60		
Cc1cnccc1-c1cc(C2CCN(C)CC2)[nH]c1-c1ccc(F)cc1 [Example 3, 4-(2-(4-fluorophenyl)-5-(1-methylpiperidin-4-yl)-1H-pyrrol-3-yl)-3-methylpyridine]	< 1000 nM	45		
Cc1cc(-c2cc(C3CCN(C)CC3)[nH]c2-c2ccc(F)cc2)ccn1 [Example 4, 4-(2-(4-fluorophenyl)-5-(1-methylpiperidin-4-yl)-1H-pyrrol-3-yl)-2-methylpyridine]	< 1000 nM	30		
CN1CCC(c2cc(-c3ccnc(C(N)=O)c3)c(-c3ccc(F)cc3)[nH]2)CC1 [Example 5, 4-(2-(4-fluorophenyl)-5-(1-methylpiperidin-4-yl)-1H-pyrrol-3-yl)picolinamide]	< 1000 nM	28		
CN1CCC(c2cc(-c3ccncc3CO)c(-c3ccc(F)cc3)[nH]2)CC1 [Example 6, (4-(2-(4-fluorophenyl)-5-(1-methylpiperidin-4-yl)-1H-pyrrol-3-yl)pyridin-3-yl)methanol]	< 1000 nM	−1		
CN1CCC(c2cc(-c3ccnc(N)c3)c(-c3ccc(F)cc3)[nH]2)CC1 [Example 7, 4-(2-(4-fluorophenyl)-5-(1-methylpiperidin-4-yl)-1H-pyrrol-3-yl)pyridin-2-amine]	< 1000 nM	48		
CN1CCC(c2cc(-c3ccncc3C#N)c(-c3ccc(F)cc3)[nH]2)CC1 [Example 8, 4-(2-(4-fluorophenyl)-5-(1-methylpiperidin-4-yl)-1H-pyrrol-3-yl)nicotinonitrile]	< 1000 nM	12		
CN1CCC(c2cc(-c3ccnc(C#N)c3)c(-c3ccc(F)cc3)[nH]2)CC1 [Example 9, 4-(2-(4-fluorophenyl)-5-(1-methylpiperidin-4-yl)-1H-pyrrol-3-yl)picolinonitrile]	< 1000 nM	16		
CC(O)c1cc(-c2cc(C3CCN(C)CC3)[nH]c2-c2ccc(F)cc2)ccn1 (centres unmarked) [Example 10, 1-(4-(2-(4-fluorophenyl)-5-(1-methylpiperidin-4-yl)-1H-pyrrol-3-yl)pyridin-2-yl)ethan-1-ol]	< 1000 nM	−4		
CN1CCc2c(ccc3c(-c4ccncc4)c(-c4ccc(F)cc4)[nH]c23)C1 [Example 11, 2-(4-fluorophenyl)-7-methyl-3-(pyridin-4-yl)-6,7,8,9-tetrahydro-1H-pyrrolo[2,3-f]isoquinoline]	< 1000 nM	35		
CN1CCC(c2cc(-c3ccn4nnnc4c3)c(-c3ccc(F)cc3)[nH]2)CC1 [Example 12, 7-(2-(4-fluorophenyl)-5-(1-methylpiperidin-4-yl)-1H-pyrrol-3-yl)tetrazolo[1,5-a]pyridine]	< 1000 nM	−35		
CN1CCC(c2cc(-c3ccncc3C(N)=O)c(-c3ccc(F)cc3)[nH]2)CC1 [Example 13, 4-(2-(4-fluorophenyl)-5-(1-methylpiperidin-4-yl)-1H-pyrrol-3-yl)nicotinamide]	< 1000 nM	−2		
CN1CCC(c2cc(-c3ccncc3)c(-c3ccc(F)cc3)n2C)CC1 [Example 14, 4-(2-(4-fluorophenyl)-1-methyl-5-(1-methylpiperidin-4-yl)-1H-pyrrol-3-yl)pyridine]	< 1000 nM	14		
CN1CCC(c2[nH]c(-c3ccc(F)cc3)c(-c3ccncc3)c2Br)CC1 [Example 15, 4-(4-bromo-2-(4-fluorophenyl)-5-(1-methylpiperidin-4-yl)-1H-pyrrol-3-yl)pyridine]	< 1000 nM	52		
CCOC(=O)c1c(C2CCN(C)CC2)[nH]c(-c2ccc(F)cc2)c1-c1ccncc1 [Example 16, Ethyl 5-(4-fluorophenyl)-2-(1-methylpiperidin-4-yl)-4-(pyridin-4-yl)-1H-pyrrole-3-carboxylate]	< 1000 nM	18		
C=Cc1c(C2CCN(C)CC2)[nH]c(-c2ccc(F)cc2)c1-c1ccncc1 [Example 17, 4-(2-(4-fluorophenyl)-5-(1-methylpiperidin-4-yl)-4-vinyl-1H-pyrrol-3-yl)pyridine]	< 1000 nM	34		
CN1CCC(c2[nH]c(-c3ccc(F)cc3)c(-c3ccncc3)c2C#N)CC1 [Example 18, 5-(4-fluorophenyl)-2-(1-methylpiperidin-4-yl)-4-(pyridin-4-yl)-1H-pyrrole-3-carbonitrile]	< 1000 nM	57		
CN1CCC(c2[nH]c(-c3ccc(F)cc3)c(-c3ccncc3)c2C(N)=O)CC1 [Example 19, 5-(4-fluorophenyl)-2-(1-methylpiperidin-4-yl)-4-(pyridin-4-yl)-1H-pyrrole-3-carboxamide]	< 1000 nM	−8		
CC(O)c1c(C2CCN(C)CC2)[nH]c(-c2ccc(F)cc2)c1-c1ccncc1 (centres unmarked) [Example 20, 1-(5-(4-fluorophenyl)-2-(1-methylpiperidin-4-yl)-4-(pyridin-4-yl)-1H-pyrrol-3-yl)ethan-1-ol]	< 1000 nM	3		
